Earlier results as cited in article PMC9834611 (Pharmacology Research & Perspectives, 2023).

Legend:
[1] = cited from earlier work
ABCB1 = test system: ABCB1; set-up: method as in PMID 11770010; details: Caco‐2 cell lines; cited from earlier work
CYP3A4 = test system: CYP3A4; set-up: method as in PMID 25141173; details: cited from earlier work

Row | SMILES | LD50 compared with parent VBL [1] | effect on ABCB1 (ABCB1) | increase in CYP3A4 mRNA expression (CYP3A4) | effect on CYP3A4 (CYP3A4; human hepatocytes)
1 | CC[C@]1(O)C[C@@H]2CN(CCc3c([nH]c4ccccc34)[C@@](C(=O)OC)(c3cc4c(cc3OC)N(C)[C@H]3[C@@](O)(C(=O)OC)[C@H](O)[C@]5(CC)C=CCN6CC[C@]43[C@@H]65)C2)C1 [4‐deacetylvinblastine] | lower than that of the parent |  |  | 
2 | COc1ccc2[nH]c([S+]([O-])Cc3ncc(C)c(OC)c3C)nc2c1 (stereo not shown) [Omeprazole] |  | inhibitor | twofold | inducer
